These results are taken from patent publication EP4512396A1, “TARGETED COVALENT INHIBITORS FOR CARBONIC ANHYDRASES” (Vilnius University, priority 2023, dated 2025).

In one assay the test system is CAIX. Nature of the assay: stopped-flow CO2 hydration assay before and after dialysis (irreversible enzyme inactivation). The assay is classed as biochemical, human. Particulars: for catalytic activity of CAIX after 32 hours of dialysis: […] CAIX incubated 2 h with 15 µM AV19-37 or 100 µM AV19-36, dialyzed in Tris buffer pH 7.
The target in assay [1] is T1, CAIII (Homo sapiens, UniProt P07451). As to the kind of experiment: Q-TOF mass spectrometry of covalent binding. As to conditions: CAIII in the presence of ligand.
T1 sequence (P07451 whole entry): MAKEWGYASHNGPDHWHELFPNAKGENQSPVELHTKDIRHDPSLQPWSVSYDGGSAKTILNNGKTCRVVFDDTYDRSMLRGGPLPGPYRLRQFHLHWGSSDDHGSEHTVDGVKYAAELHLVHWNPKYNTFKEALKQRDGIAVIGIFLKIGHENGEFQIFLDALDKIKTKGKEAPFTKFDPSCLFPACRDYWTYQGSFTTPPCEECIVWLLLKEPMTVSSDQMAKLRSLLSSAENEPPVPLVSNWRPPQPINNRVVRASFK
A further assay deals with CAVI (Homo sapiens, UniProt P23280). Nature of the assay: fluorescent thermal shift assay (FTSA). The assay is classed as binding. Particulars: FTSA at 37 °C and pH 7.0, read-out: Kd_app.
CAVI, sequence (P23280 21-290 limits assumed): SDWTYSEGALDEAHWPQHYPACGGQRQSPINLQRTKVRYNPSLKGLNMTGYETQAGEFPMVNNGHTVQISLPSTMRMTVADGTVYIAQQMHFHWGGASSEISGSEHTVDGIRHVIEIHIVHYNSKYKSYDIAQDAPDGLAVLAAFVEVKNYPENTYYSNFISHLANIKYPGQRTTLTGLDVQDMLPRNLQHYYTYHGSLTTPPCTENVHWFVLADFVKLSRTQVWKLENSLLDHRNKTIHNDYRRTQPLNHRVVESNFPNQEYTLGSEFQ
The next assay addresses CA XIV (Homo sapiens, UniProt Q9ULX7). As to the kind of experiment: fluorescent thermal shift assay (FTSA). The assay is classed as binding. As to conditions: FTSA at 37 °C and pH 7.0, read-out: Kd_app.
The target in another assay is CA IV (Homo sapiens, UniProt P22748). Nature of the assay: biochemical.
CA IV, sequence (P22748 19-284): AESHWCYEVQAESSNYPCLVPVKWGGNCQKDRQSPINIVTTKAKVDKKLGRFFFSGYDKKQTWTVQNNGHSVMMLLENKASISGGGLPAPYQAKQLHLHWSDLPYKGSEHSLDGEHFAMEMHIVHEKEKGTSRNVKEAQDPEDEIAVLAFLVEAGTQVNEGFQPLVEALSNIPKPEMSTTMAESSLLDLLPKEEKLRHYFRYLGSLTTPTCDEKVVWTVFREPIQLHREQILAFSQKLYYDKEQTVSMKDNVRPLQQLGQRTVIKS
Assay [2] deals with T1, CAIII. As to the kind of experiment: fluorescent thermal shift assay (FTSA). The assay is classed as binding.
For another assay, the target named is CA VA (Homo sapiens, UniProt P35218). As to conditions: pH 7.
CA VA, sequence (P35218 39-305): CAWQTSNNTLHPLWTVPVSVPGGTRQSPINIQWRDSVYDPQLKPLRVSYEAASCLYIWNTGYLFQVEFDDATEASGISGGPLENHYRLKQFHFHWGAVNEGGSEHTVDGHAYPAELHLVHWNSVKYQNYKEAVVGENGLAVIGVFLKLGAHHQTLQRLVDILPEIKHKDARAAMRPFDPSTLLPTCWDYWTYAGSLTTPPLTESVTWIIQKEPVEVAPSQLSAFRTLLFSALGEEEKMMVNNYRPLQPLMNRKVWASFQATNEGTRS
A further assay concerns the target CAXIII (Homo sapiens, UniProt Q8N1Q1). Nature of the assay: fluorescent thermal shift assay (FTSA). The assay is classed as binding. Particulars: FTSA at 37 °C and pH 7.0, read-out: Kd_app.
The next assay concerns the target CAXII (Homo sapiens, UniProt O43570). Nature of the assay: fluorescent thermal shift assay (FTSA). The assay is classed as binding. Particulars: FTSA at 37 °C and pH 7.0, read-out: Kd_app.
For the next assay, the target named is CA VB (Homo sapiens, UniProt Q9Y2D0). Nature of the assay: fluorescent thermal shift assay (FTSA). The assay is classed as binding. Particulars: FTSA at 37 °C and pH 7.0, read-out: Kd_app.
CA VB, sequence (Q9Y2D0 34-317): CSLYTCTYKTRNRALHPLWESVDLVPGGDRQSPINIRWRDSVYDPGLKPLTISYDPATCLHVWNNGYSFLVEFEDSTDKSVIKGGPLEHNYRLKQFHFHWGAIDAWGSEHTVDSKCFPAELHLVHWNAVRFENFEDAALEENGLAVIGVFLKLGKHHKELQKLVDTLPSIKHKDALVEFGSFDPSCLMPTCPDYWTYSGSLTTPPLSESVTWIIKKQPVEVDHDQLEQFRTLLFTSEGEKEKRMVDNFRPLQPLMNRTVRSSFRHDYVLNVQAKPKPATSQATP
The target of the next assay is CAVII (Homo sapiens, UniProt P43166). As to the kind of experiment: fluorescent thermal shift assay (FTSA). The assay is classed as binding. Particulars: FTSA at 37 °C and pH 7.0, read-out: Kd_app.
CAVII, sequence (P43166 whole entry): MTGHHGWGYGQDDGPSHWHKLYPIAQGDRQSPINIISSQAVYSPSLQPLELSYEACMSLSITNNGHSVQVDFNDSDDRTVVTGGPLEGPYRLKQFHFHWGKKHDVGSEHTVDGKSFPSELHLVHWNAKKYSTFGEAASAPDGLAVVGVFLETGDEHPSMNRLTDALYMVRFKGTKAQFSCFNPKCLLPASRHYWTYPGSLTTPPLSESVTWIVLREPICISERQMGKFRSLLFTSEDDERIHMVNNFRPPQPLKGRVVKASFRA

CA XIV, sequence (Q9ULX7 16-337): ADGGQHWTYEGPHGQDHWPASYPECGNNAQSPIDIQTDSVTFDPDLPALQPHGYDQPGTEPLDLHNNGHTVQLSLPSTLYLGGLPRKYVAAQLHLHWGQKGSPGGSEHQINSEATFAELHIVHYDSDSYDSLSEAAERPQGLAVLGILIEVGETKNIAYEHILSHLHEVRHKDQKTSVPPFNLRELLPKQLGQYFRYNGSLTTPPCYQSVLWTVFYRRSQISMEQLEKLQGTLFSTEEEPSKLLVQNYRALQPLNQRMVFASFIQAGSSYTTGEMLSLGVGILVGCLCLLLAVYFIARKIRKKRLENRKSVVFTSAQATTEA
CAXIII, sequence (Q8N1Q1 whole entry): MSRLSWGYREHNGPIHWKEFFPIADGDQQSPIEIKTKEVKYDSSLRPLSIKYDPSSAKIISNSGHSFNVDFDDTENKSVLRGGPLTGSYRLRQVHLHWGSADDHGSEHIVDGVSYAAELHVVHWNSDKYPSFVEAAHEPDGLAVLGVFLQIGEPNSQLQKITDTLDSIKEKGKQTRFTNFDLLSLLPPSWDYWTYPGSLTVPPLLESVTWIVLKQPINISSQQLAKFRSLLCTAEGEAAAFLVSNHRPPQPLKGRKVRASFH
CAXII, sequence (O43570 25-354): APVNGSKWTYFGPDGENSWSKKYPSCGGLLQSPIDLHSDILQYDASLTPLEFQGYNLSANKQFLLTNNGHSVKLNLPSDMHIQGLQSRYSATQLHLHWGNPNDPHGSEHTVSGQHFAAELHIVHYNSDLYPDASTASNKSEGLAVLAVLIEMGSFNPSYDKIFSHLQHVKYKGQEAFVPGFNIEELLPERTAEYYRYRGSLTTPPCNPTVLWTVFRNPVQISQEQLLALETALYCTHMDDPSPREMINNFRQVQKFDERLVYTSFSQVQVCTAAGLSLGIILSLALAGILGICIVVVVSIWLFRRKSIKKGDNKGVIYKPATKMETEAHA

In the case of `CC(=O)OCCSc1c(F)c(F)c(S(N)(=O)=O)c(F)c1F` [AV19-36, 2-((2,3,5,6-tetrafluoro-4-sulfamoylphenyl)thio)ethyl acetate], in the assay with CAIX, the “catalytic activity of CAIX after 32 hours of dialysis” value is recorded as “partially restored its catalytic activity”.

Take `CC(=O)OCCS(=O)(=O)c1c(F)c(F)c(S(N)(=O)=O)c(F)c1NC1CCCCCCC1` [AV19-37, 2-((2-(cyclooctylamino)-3,5,6-trifluoro-4-sulfamoylphenyl)sulfonyl)ethyl acetate]: on CAIII [1], the “covalent modification by MS” value is recorded as “did not show a covalent modification”. Besides, in the assay on CAIX, the “catalytic activity of CAIX after 32 hours of dialysis” value is “not restored”. Moreover, in the assay on CAIX ([…] CAIX, 15 µM AV19-37, CO2 hydration, 25 °C, pH 7.5), the “catalytic activity of CAIX after 2 hours of incubation with compound” value is “lost its catalytic activity”.

As to `NS(=O)(=O)c1c(F)c(F)c(S(=O)(=O)CCOC(=O)Cc2ccccc2)c(F)c1F` [AV21-25, 2-((2,3,5,6-tetrafluoro-4-sulfamoylphenyl)sulfonyl)ethyl 2-phenylacetate], the Kd turned out to be 0.36 nM at CAVI; 0.28 nM on CA XIV; 45 nM at CA IV; 18000 nM at CAIII [2]; 2.5 nM at CA VA; 0.012 nM at CAXIII. Further, the Kd at CAXII came out at 0.072 nM; on CA VB, 0.017 nM; on CAVII, 0.83 nM.
